# From patent publication US11020414B2, “Antimicrobial compositions with cysteamine” (priority 2010, dated 2021)
# Values joined by “and” are separate entries in the source; they are usually repeats but may differ in a detail not shown here. Equal entries are not always repeated.
# What was measured:
# [1] = tested on: P. aeruginosa PAO1 planktonic cells; test: MIC in physiologically-relevant ionic concentrations (FIG. 7); assay type: cell-based, Pseudomonas aeruginosa
# Protocol: Bacterial growth was followed over a 24 h period and absorbance read using a BioTek microtitre plate reader at 625 nm. Total bacterial growth inhibition was retained in the presence of NaCl, CaCl2 or DNA and at two-fold the normal MIC100 in the presence of mucin. Tobramycin activity was inhibited in the presence of the divalent cation ca^2+ and in the presence of the anionic polymer DNA. […] A similar method as described above (1.4) was used for the determination of the antimicrobial activity of cysteamine (Lynovex®) in the presence of high ionic concentrations. […] Bacterial growth was followed over a 24 h period and absorbance read using a BioTek microtitre plate reader at 625 nm.
# [2] = tested on: Pseudomonas aeruginosa Pa57388A; test: FIC index of combinations with conventional antibiotics, strain Pa57388A; assay type: cell-based; conditions: strain Pa57388A (Col^R), listed as Cysteamine (NM001)
# Protocol: (§1) The bacterial inoculum was established by the dilution method from actively-growing cultures in Mueller-Hinton (MH) broth, standardized with 0.5 McFarland turbidity standard as described in the CLSI method M26-A.
# (§2) Both the bacterial inoculum and the antimicrobial agents, including the compounds structurally related to cysteamine, were added simultaneously to the plates. The plates were incubated at 37° C. for 24 h and the optical density was read at 625 nm on a microtitre plate reader (BioTek Powerwave XS, Winooski, USA). The MIC was obtained as the lowest concentration of antimicrobial showing total inhibition of bacterial growth.
# (§3) The FIC corresponds to an interaction coefficient indicating whether the combination of antimicrobial agents is synergistic, additive, antagonist or neutral. The FIC is determined by comparing the activity of an agent in combination (MIC of agent A+agent B) with the activity of the agent alone (MIC of agent A or agent B) as follow (Singh et al., 2000): FIC=MICA[combination]/MICA[alone]+MICB[combination]/MICB[alone]
# (§4) Additive combinations of two antimicrobial agents are indicated by a FIC index of 1, whereas a FIC index<1 indicates synergistic combinations. Neutral combinations would give a FIC between 1 and 4, a FIC index higher than 4 indicates antagonist effects between the two antimicrobial agents.
# (§5) The FIC was also calculated to assess the interaction of two antimicrobial agents in combination against bacterial samples.
# [3] = tested on: Pseudomonas aeruginosa cells; test: Tobramycin alone and with cysteamine in non-mucous and mucous environment (FIG. 3); assay type: cell-based; conditions: mucous environment (NaCl and/or mucin)
# Text: FIG. 3: provides a comparison of the activity of Tobramycin alone and when in combination with cysteamine (NM001) against Pseudomonas aeruginosa cells cultured in a non-mucous environment and when cultured in a mucous environment replicating that found within the CF lung (in the presence of NaCl and/or mucin).
# [4] = tested on: P. aeruginosa PAO1 biofilms; test: Post-antimicrobial effect and metabolic activity of biofilms after treatment (FIG. 9, 10); assay type: cell-based, Pseudomonas aeruginosa; conditions: 24 h following treatment of the biofilms
# Protocol: FIG. 9: is a graph showing the post-antimicrobial effect of cysteamine (NM001) in combination with Tobramycin versus P. aeruginosa PAO1 biofilms. […] The PAE was determined by transfer of 10 μl biofilm cultures into 90 μl sterile MH broth in triplicate in microtitre plates following treatment. Bacterial growth was followed on a BioTek plate reader for 24 h at 37° C. Microbial metabolic activity following treatment of the biofilms was determined using the same method as for PAE determination and adding 10% (v/v) of a fluorescent cell viability indicator, resazurin (Alamar Blue, Serotec), which detected microbial metabolic activity growth by increase in fluorescence. Fluorescence was measured over 24 h at 37° C. using a BioTek Synergy HT microplate reader (BioTek, Winooski, USA) at 530/590 nm.
# [5] = tested on: Pseudomonas aeruginosa Pa14; test: FIC index of combinations with conventional antibiotics, strain Pa14; assay type: cell-based; conditions: strain Pa14 (Col^R)
# Protocol: as §1, §2, §3, §4, §5
# [6] = tested on: Pseudomonas aeruginosa Pa058; test: MIC determination, strain Pa058; assay type: cell-based
# Protocol: as §1
# (§6) Both the bacterial inoculum and the antimicrobial agents, including the compounds structurally related to cysteamine, were added simultaneously to the plates. The plates were incubated at 37° C. for 24 h and the optical density was read at 625 nm on a microtitre plate reader (BioTek Powerwave XS, Winooski, USA). […]
# (§7) A number of compounds related in chemical structure to cysteamine were examined for antimicrobial activity; cystamine (dihydrochloride salt), taurine and 2,3-dimercaptosuccinic acid. Other compounds chemically related to cysteamine are known, but are toxic, and are therefore of no utility in a drug of this nature.
# [7] = tested on: Pseudomonas aeruginosa NH57388A; test: MIC determination, strain NH57388A; assay type: cell-based
# Protocol: as §1, §6, §7
# [8] = tested on: Pseudomonas aeruginosa Pa14; test: MIC determination, strain Pa14; assay type: cell-based
# Protocol: as §1, §6, §7
# [9] = tested on: Pseudomonas aeruginosa Pa57388D; test: FIC index of combinations with conventional antibiotics, strain Pa57388D; assay type: cell-based; conditions: strain Pa57388D (Col^R, Gent^R), listed as Cysteamine (NM001)
# Protocol: as §1, §2, §3, §4, §5
# [10] = tested on: Pseudomonas planktonic cells; test: Antibacterial activity of Tobramycin and cysteamine, separately and combined (FIG. 1); assay type: cell-based; conditions: FIG. 1b
# Protocol: FIG. 1A and FIG. 1B: provide a comparison of the antibacterial activity of Tobramycin and cysteamine (NM001) against Pseudomonas planktonic cells when administered separately, and in combined form. NM001 reduces the MIC of Tobramycin against planktonic cells by at least 4-fold (FIG. 1b)
# as §2
# [11] = in combination with Ciprofloxacin
smiles,measurement,setting,value
"NCCS [Cysteamine, cysteamine]",total bacterial growth inhibition (MIC100) versus normal condition,"[1]; in the presence of 150 mM NaCl, 1.7 mM CaCl2 or 1 mg/ml DNA",retained
same,concentration for total growth inhibition relative to the normal MIC100,[1]; in the presence of 1% (w/v) porcine gastric mucin,two-fold
same,FICI (Additive) Cip,[2]; [11],0.63
same,FICI (Additive) Col,[2]; in combination with Colistin,0.52 and 0.51 and 0.63 and 0.56
same,FICI (Synergy) Col,[2]; in combination with Colistin,0.38 and 0.31
same,FICI (Additive) Gent,[2]; in combination with Gentamicin,0.5 and 0.56 and 0.75
same,FICI (Synergy) Gent,[2]; in combination with Gentamicin,0.38
same,FICI (Additive) Tob,[2]; in combination with Tobramycin,0.63 and 0.75 and 0.5 and 0.56
same,FICI (Synergy) Tob,[2]; in combination with Tobramycin,0.31 and 0.38
same,effect on activity of conventional antibiotics,[3],restores antibiotic activity
same,"post-antimicrobial effect (delayed bacterial growth, reduced metabolic activity of the biofilm)",[4],significant PAE
same,FICI (Additive) Cip,"[5]; in combination with Ciprofloxacin, listed as Cysteamine (NM001)",0.75 and 0.63
same,FICI (Synergy) Col,[5]; in combination with Colistin,0.38
same,FICI (Additive) Col,"[5]; in combination with Colistin, listed as Cysteamine (NM001)",0.53 and 0.5 and 0.56
same,FICI (Additive) Gent,"[5]; in combination with Gentamicin, listed as Cysteamine (NM001)",0.63 and 0.5 and 0.75
same,FICI (Additive) Tob,"[5]; in combination with Tobramycin, listed as Cysteamine (NM001)",0.56 and 0.75 and 0.5
same,MIC50,[6],500 µg/mL
same,MIC90,[6],1000 µg/mL
same,MIC,[6]; read-out: MIC100,1000 µg/mL
same,MIC50,[7],250 µg/mL
same,MIC90,[7],250 to 500 µg/mL
same,MIC,[7]; read-out: MIC100,667 µg/mL
same,MIC50,[8],125 to 250 µg/mL
same,MIC90,[8],500 µg/mL
same,MIC,[8]; read-out: MIC100,1330 µg/mL
same,FICI (Additive) Cip,[9]; [11],0.53 and 0.56 and 0.52 and 0.75
same,FICI (Additive) Col,[9]; in combination with Colistin,0.62 and 0.53 and 0.56 and 0.5
same,FICI (Synergy) Col,[9]; in combination with Colistin,0.31 and 0.38
same,FICI (Additive) Gent,[9]; in combination with Gentamicin,0.5 and 0.63 and 0.51
same,FICI (Synergy) Gent,[9]; in combination with Gentamicin,0.38
same,FICI (Additive) Tob,[9]; in combination with Tobramycin,0.56 and 0.51 and 0.52
same,FICI (Synergy) Tob,[9]; in combination with Tobramycin,0.38 and 0.31 and 0.25
same,reduction of the MIC of Tobramycin by NM001,[10],at least 4 fold
